Test results reported in US20230272357A1, “METHODS OF GENOME EDITING INCLUDING CONTROLLED OPENING OF CHROMATIN” (Wisconsin Alumni Research Foundation, priority 2021, published 2023).

Key:
Assay type in all cases: cell-based, human
iPSCs [1] = assay: Bulk RNA sequencing of TSA-treated iPSCs; conditions: edited clones from 6.25 ng/mL TSA, data not shown
Procedure: RNA extraction and Bulk RNA sequencing: RNA was extracted from iPSCs in one well of 6-well plate using the GenElute™ Total RNA Purification Kit (Millipore Sigma) according to the manufacturer's instructions. RNA was then quantified using Nanodrop™ 2000 (ThermoFisher Scientific) and the integrity of samples were confirmed with the following three criteria for inclusion: 1) a concentration>50 ng/ml, 2) an A260/A280 rating of 1.8 and 2.1, and 3) an A260/A230 ratio>1.8. Total RNA was submitted to the University of Wisconsin-Madison Biotechnology Center and was verified for purity and integrity via the NanoDrop™ One Spectrophotometer and Agilent 2100 BioAnalyzer, respectively. Samples that met the Illumina® sample input guidelines were prepared according to the TruSeq®Stranded Total Sample Preparation Guide (1000000040499 v00) using the Illumina® TruSeq ® Stranded Total Sample Preparation kits (Illumina Inc., San Diego, Calif., USA) and sequenced on an Illumina® NovaSeg™ 6000 system at a run length 2×150 bp and target read depth of 30 million reads/sample at the University of Wisconsin—Madison Biotechnology Center. […] Normalized counts were then extracted and genes with read counts <10 were filtered out. Fold change was then calculated as the ratio of the reads of the TSA-treated iPSCs to the untreated iPSCs.

iPSCs [2] = assay: Cell viability by Ghost Dye Red 780 flow cytometry
Procedure: Cell viability: Flow cytometry was performed using Ghost Dye™ Red 780 viability dye (Tonbo Biosciences) to determine the dose range of the TSA that can be administrated to the cells without affecting cell viability. iPSCs (15,000 per well) were cultured overnight and incubated with TSA in 96-well plates for 24 h. The next day, cells were singularized using Accutase™ (STEMCELL technologies), washed with PBS, centrifuged at 300 g for 5 minutes, and Ghost Dye™ Red 780 viability dye was added at 1:1000 concentration for 20 minutes at room temperature. Cells were then washed with PBS, spun down at 300g for 5 minutes, and resuspended in 300 μL of PBS. Cells were run on an Attune NxT™ flow cytometer (Thermo Fisher Scientific) and subsequent analysis was performed using Flowjo software (BD).
(§1) Flow cytometry and fluorescence activated cell sorting: Flow cytometry was performed on singularized iPSCs using Attune™ Nxt flow cytometer (ThermoFisher Scientific) and analyzed using the FlowJo Software. Ghost Dye™ Red 780, ATTO 550, and GFP fluorescence were detected using 780/60, 585/16, and 530/30 filters in […] positions, respectively. Gates were established by running singularized untransfected iPSCs. The percentage of viable cells was calculated as the ratio of Ghost Dye™ Red 780-cells to the total number of single cells. Transfection efficiency was calculated as the percentage of ATTO 550+ cells to the total number of viable cells on day 2 post-transfection. Gene editing efficiency was calculated as the percentage of GFP-cells to the total number of viable cells on day 6 post-transfection. For the sorting experiments, iPSCs were singularized 6 days post-transfection using Accutase™, washed with PBS+20 μM ROCK inhibitor, centrifuged at 300 g for 5 minutes. Ghost Dye™ Red 780 viability dye (Tonbo Biosciences) was then added at 1:1000 concentration for 20 minutes at room temperature. Cells were washed again with PBS+20 μM ROCK inhibitor, spun down at 300 g for 5 minutes, and resuspended in 300 μL of FACS buffer (PBS+2% BSA+20 μM ROCK inhibitor). GFP-cells were then sorted into tubes containing mTeSR1+20 μM ROCK inhibitor, and seeded onto Matrigel®-coated 6 well polystyrene plates at 100 cells/well to obtain single-cell iPSC clones.

HIST1H2BJ-GFP locus = assay: CRISPR-Cas9 gene editing efficiency by flow cytometry (GFP- cells)
Procedure: SpyCas9 RNP preparation: RNPs were produced by complexing a two-component gRNA to SpyCas9. In brief, tracr-RNA and crRNA were ordered from IDT, suspended in nuclease-free duplex buffer at 100 μM, and stored in single-use aliquots at −20° C. tracrRNA and crRNA were thawed, and 0.0625 μL of each component was mixed 1:1 by volume and annealed by incubation at room temperature for 5 minutes to form a 50 μM sgRNA solution for each well of a 96 well plate. Recombinant sNLS-SpCas9-sNLS Cas9 (Aldevron, 10 mg/mL) was added to the complexed gRNA at a 1:1 molar ratio (1000 ng/well, Total 0.1 μL) and incubated for 5 minutes at room temperature to form RNP.
RNP delivery: iPSCs were singularized using Accutase™ and counted using a Countess® II FL Automated Cell Counter (Thermo Fisher Scientific) with 0.4% Trypan Blue viability stain (Thermo Fisher Scientific). iPSCs were then seeded at 15,000 cells/well on 96 well glass bottom plates (Cellvis) in mTeSR1 (WiCell) and 10 μM ROCK inhibitor (Y27632, Selleckchem), two days before lipofection or electroporation. On the following day, iPSCs were treated with TSA (0-200 ng/mL) for 16-24 hours. iPSC lipofections were performed using 0.5 μL Lipofectamine Stem Cell Reagent/well (1000 ng Cas9/well and sgRNA at 1:1 molar ratio). Cells remained undisturbed for 48 hours and were then passaged 1:4 using ReLeSR™ solution followed by daily mTeSR1 media changes for 4 additional days before downstream analysis.
as §1
A simple, yet robust, workflow has been developed to introduce mutations in iPSCs without extensive use of deep sequencing (FIG. 1A). A mono-allelic mEGFP tagged HIST1H2BJWTC-11 human iPSC line (tag at C-terminus) was used as it provides two-fold advantages. […] Second, these iPSCs enable in situ live imaging of their cell nuclei to monitor chromatin changes during the process of CRISPR-Cas9 gene editing. An Alt-R® CRISPR-Cas9 2-part single guide RNA (sgRNA) system (IDT) was employed, which consists of 1) crRNA sequence to target the mEGFP locus in iPSCs (FIG. 1B), and 2) ATTO™ 550 fluorescent dye labelled tracrRNA that binds to Cas9. A range of TSA concentrations (0-200 ng/mL) were tested on iPSCs to determine the effect of TSA on cell viability. […] TSA concentrations of 0, 3.13, 6.25, and 12.5 ng/mL for further studies. Next, a range of TSA treatment durations (0-24 hours) were assessed and two methods for delivery for the Cas9 RNP complex (lipofection and electroporation) were also assessed to determine the optimal conditions for gene editing. […]

For `CC(/C=C/C(=O)NO)=C\[C@@H](C)C(=O)c1ccc(N(C)C)cc1` [TSA, Trichostatin A], the “Gene expression of pluripotency marker genes (OCT4, NANOG, SOX2, TRA-1-60)” value (iPSCs [1]) was “did not decrease”, the Cell toxicity (iPSCs [2]; 12.5 ng/mL TSA, FIG. 1E) was “higher cell toxicity” and the “Cell viability (% GhostDye- cells/total cells)” value (iPSCs [2]; TSA 0, 3.13, 6.25, 12.5 ng/mL, FIG. 1D) was “decreases”. The Cell viability (iPSCs [2]; iPSCs, TSA 0-200 ng/mL, data not shown) was “decreased with the increase in TSA concentration”, the “TSA concentration with considerable decrease in cell viability” value (iPSCs [2]; iPSCs, TSA range 0-200 ng/mL tested) was over 25 ng/mL and the “Gene editing efficiency (% GFP- cells/viable cells) upon TSA treatment” value (HIST1H2BJ-GFP locus; TSA 0-12.5 ng/mL, FIG. 1D) was “increases”. For the same molecule, the “Increase in gene editing efficiency (% GFP- cells/viable cells)” value (HIST1H2BJ-GFP locus; TSA 6.25 ng/mL, day 6 after Cas9 RNP delivery) was 2-3 fold, the “Gene editing efficiency on additional increase of TSA concentration” value (HIST1H2BJ-GFP locus; TSA 12.5 ng/mL vs 6.25 ng/mL) was “did not increase the editing efficiency further” and the “Increase in gene editing efficiency of iPSCs” value (HIST1H2BJ-GFP locus; chromatin decondensation via TSA, summary statement) was 2-3 fold. The “Relation between gene editing efficiency (% GFP- cells/viable cells) and dose of TSA” value (HIST1H2BJ-GFP locus; concentrations up to 6.25 ng/mL, day 6) was “positive correlation” and the “TSA treatment duration yielding the highest gene editing efficiencies” value (HIST1H2BJ-GFP locus; durations 0-24 hours assessed, data not shown) was 20 h.
